Data from ChEMBL document CHEMBL4417631, “Oral peptide inhibitors of interleukin-23 receptor and their use to treat inflammatory bowel diseases” (2017).

Columns and labels:
[1] = Half life in simulated intestinal fluid at 20 uM by LC-MS/MS analysis; format: ADME
[2] = Half life in simulated gastric fluid at 20 uM by LC-MS/MS analysis; format: ADME
Interleukin-23 receptor [3] = target: T1, Interleukin-23 receptor (Homo sapiens, UniProt Q5VWK5); test: Inhibition of interleukin-23 receptor in human DB cells assessed as reduction in IL-23-stimulated STAT3 phosphorylation incubated for 30 mins by HTRF assay; format: cell-based
T1 sequence (Q5VWK5 whole entry): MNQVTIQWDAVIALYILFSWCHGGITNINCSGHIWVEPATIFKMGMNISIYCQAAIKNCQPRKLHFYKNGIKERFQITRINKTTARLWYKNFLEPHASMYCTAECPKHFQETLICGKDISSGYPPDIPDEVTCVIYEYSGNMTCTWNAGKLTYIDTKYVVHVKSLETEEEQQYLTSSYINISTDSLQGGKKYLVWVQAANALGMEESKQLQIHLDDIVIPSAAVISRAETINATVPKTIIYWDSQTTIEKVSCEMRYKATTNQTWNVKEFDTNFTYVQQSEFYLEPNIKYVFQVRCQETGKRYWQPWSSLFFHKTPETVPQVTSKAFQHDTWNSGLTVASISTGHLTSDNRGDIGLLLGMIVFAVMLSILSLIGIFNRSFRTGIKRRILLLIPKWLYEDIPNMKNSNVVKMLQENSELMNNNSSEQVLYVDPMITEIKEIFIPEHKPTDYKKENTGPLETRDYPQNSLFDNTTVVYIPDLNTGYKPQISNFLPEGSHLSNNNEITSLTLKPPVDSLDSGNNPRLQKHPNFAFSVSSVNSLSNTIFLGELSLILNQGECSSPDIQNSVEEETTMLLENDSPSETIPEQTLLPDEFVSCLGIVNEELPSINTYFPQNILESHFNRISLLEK

Interleukin-23 receptor [4] = target: T1, Interleukin-23 receptor; test: Inhibition of interleukin-23 binding to human interleukin-23 receptor incubated for 2 hrs by competitive binding ELISA

Row | Compound | half-life at 20 µM [1] [h] | half-life at 20 µM [2] [h] | IC50 (Interleukin-23 receptor [3]) [nM] | IC50 (Interleukin-23 receptor [4]) [nM]
1 | COc1ccc(C[C@H](NC(=O)[C@@H](NC(=O)[C@H](CCC(N)=O)NC(=O)[C@H](Cc2c[nH]c3ccccc23)NC(=O)[C@@H](NC(=O)[C@H](CC(N)=O)NC(=O)[C@@H](NC(C)=O)C(C)(C)S)[C@@H](C)O)C(C)(C)S)C(=O)N[C@@H](Cc2ccc3ccccc3c2)C(=O)NC(C)(C)C(=O)N[C@@H](CCC(=O)O)C(=O)N[C@@H](CC(N)=O)C(=O)N[C@@H](CC(N)=O)C(N)=O)cc1 | 2 to 3 | > 6 | < 10 | –
2 | CC(=O)NCCCC[C@H](NC(=O)[C@H](CCC(C)C)NC(=O)[C@H](Cc1ccc2ccccc2c1)NC(=O)[C@H](Cc1ccc(OCCN)cc1)NC(=O)[C@@H](NC(=O)[C@H](CCC(N)=O)NC(=O)[C@H](Cc1c[nH]c2ccccc12)NC(=O)[C@@H](NC(=O)[C@H](CC(N)=O)NC(=O)[C@@H](NC(C)=O)C(C)(C)S)[C@@H](C)O)C(C)(C)S)C(=O)N[C@@H](CC(N)=O)C(=O)NCCC(N)=O | < 1 | < 1 | < 10 | –
3 | CC(=O)NCCCC[C@H](NC(=O)C(C)(C)NC(=O)[C@H](Cc1ccc2ccccc2c1)NC(=O)[C@H](Cc1ccc(OCCN)cc1)NC(=O)[C@@H](NC(=O)[C@H](CCC(N)=O)NC(=O)[C@H](Cc1c[nH]c2ccccc12)NC(=O)[C@@H](NC(=O)[C@H](CC(N)=O)NC(=O)[C@@H](NC(C)=O)C(C)(C)S)[C@@H](C)O)C(C)(C)S)C(=O)N[C@@H](CC(N)=O)C(=O)N[C@@H](C)C(N)=O | > 6 | > 6 | < 10 | –
4 | CC(=O)NCCCC[C@](C)(NC(=O)[C@H](Cc1ccc2ccccc2c1)NC(=O)[C@H](Cc1ccc(OCCNC(C)=O)cc1)NC(=O)[C@@H](NC(=O)[C@H](CCC(N)=O)NC(=O)[C@H](Cc1c[nH]c2ccccc12)NC(=O)[C@@H](NC(=O)[C@](C)(CCCNC(C)=O)NC(=O)[C@@H](NC(C)=O)C(C)(C)S)[C@@H](C)O)C(C)(C)S)C(=O)N[C@@H](CCC(=O)O)C(=O)N[C@@H](CC(N)=O)C(=O)NCC(N)=O | 1 to 2 | 3 to 6 | – | 100 to 1000
5 | COc1ccc(C[C@H](NC(=O)[C@@H]2CSCC[C@H](NC(C)=O)C(=O)N[C@@H](CCC(N)=O)C(=O)N[C@@H]([C@@H](C)O)C(=O)N[C@@H](Cc3c[nH]c4ccccc34)C(=O)N[C@@H](CCC(N)=O)C(=O)N2)C(=O)N[C@@H](Cc2ccc3ccccc3c2)C(=O)N[C@H](C(=O)N[C@@H](CCCCNC(C)=O)C(=O)N[C@@H](CC(N)=O)C(=O)NCC(N)=O)C2CCCCC2)cc1 | 2 to 6 | 3 to 6 | – | 25 to 100
6 | CC(=O)NCCCC[C@H](NC(=O)C(C)(C)NC(=O)[C@H](Cc1ccc2ccccc2c1)NC(=O)[C@H](Cc1ccc(OCCN)cc1)NC(=O)[C@@H](NC(=O)[C@H](CCC(N)=O)NC(=O)[C@H](Cc1c[nH]c2ccccc12)NC(=O)[C@@H](NC(=O)[C@H](CCC(N)=O)NC(=O)[C@@H](NC(C)=O)C(C)(C)S)[C@@H](C)O)C(C)(C)S)C(=O)N[C@@H](CC(N)=O)C(=O)NCCC(N)=O | > 6 | > 6 | < 10 | –
7 | COc1ccc(C[C@H](NC(=O)[C@@H](NC(=O)[C@H](CCC(N)=O)NC(=O)[C@H](Cc2c[nH]c3ccccc23)NC(=O)[C@@H](NC(=O)[C@H](CC(N)=O)NC(=O)[C@@H](NC(C)=O)C(C)(C)S)[C@@H](C)O)C(C)(C)S)C(=O)N[C@@H](Cc2ccc3ccccc3c2)C(=O)NC(C)(C)C(=O)N[C@@H](CCCCNC(C)=O)C(=O)N[C@@H](CC(N)=O)C(=O)N[C@@H](CCC(N)=O)C(N)=O)cc1 | > 6 | > 6 | < 10 | –
8 | COc1ccc(C[C@H](NC(=O)[C@@H](NC(=O)[C@H](CCC(N)=O)NC(=O)[C@H](Cc2c[nH]c3ccccc23)NC(=O)[C@@H](NC(=O)[C@H](CC(N)=O)NC(=O)[C@@H](NC(C)=O)C(C)(C)S)[C@@H](C)O)C(C)(C)S)C(=O)N[C@@H](Cc2ccc3ccccc3c2)C(=O)NC(C)(C)C(=O)N[C@@H](CCCCNC(C)=O)C(=O)N[C@@H](CC(N)=O)C(=O)N[C@@H](CC(N)=O)C(N)=O)cc1 | > 6 | > 6 | < 10 | –
9 | COc1ccc(C[C@H](NC(=O)[C@@H](NC(=O)[C@H](CCC(N)=O)NC(=O)[C@H](Cc2c[nH]c3ccccc23)NC(=O)[C@@H](NC(=O)[C@H](CC(N)=O)NC(=O)[C@@H](NC(C)=O)C(C)(C)S)[C@@H](C)O)C(C)(C)S)C(=O)N[C@@H](Cc2ccc3ccccc3c2)C(=O)N[C@@H](CCC(C)C)C(=O)N[C@@H](CCCCNC(C)=O)C(=O)N[C@@H](CC(N)=O)C(=O)NCCC(N)=O)cc1 | < 1 | < 1 | < 10 | –
10 | CC(=O)NCCCC[C@H](NC(=O)C1(NC(=O)[C@H](Cc2ccc3ccccc3c2)NC(=O)[C@H](Cc2ccc(C(N)=O)cc2)NC(=O)[C@@H](NC(=O)[C@H](CCC(N)=O)NC(=O)[C@H](Cc2c[nH]c3ccccc23)NC(=O)[C@@H](NC(=O)[C@H](CC(N)=O)NC(=O)[C@@H](NC(C)=O)C(C)(C)S)[C@@H](C)O)C(C)(C)S)CCCC1)C(=O)N[C@@H](CC(N)=O)C(=O)N[C@@H](CC(N)=O)C(N)=O | > 6 | > 6 | – | –
11 | CC(=O)N[C@@H](CCCNC(=N)N)C(=O)N[C@H]1CCSC[C@@H](C(=O)N[C@@H](Cc2ccc(OCCN)cc2)C(=O)N[C@@H](Cc2ccc3ccccc3c2)C(=O)N[C@@](C)(CCCCN)C(=O)N[C@@H](CCC(=O)O)C(=O)N[C@@H](CC(N)=O)C(=O)N[C@@H](CC(N)=O)C(N)=O)NC(=O)[C@H](CCC(N)=O)NC(=O)[C@H](Cc2c[nH]c3ccccc23)NC(=O)[C@H]([C@@H](C)O)NC(=O)[C@H](CCC(N)=O)NC1=O | < 1 | 2 to 3 | – | –
12 | CC(=O)NCCCC[C@H](NC(=O)C1(NC(=O)[C@H](Cc2ccc3ccccc3c2)NC(=O)[C@H](Cc2ccc(C(N)=O)cc2)NC(=O)[C@@H](NC(=O)[C@H](CCC(N)=O)NC(=O)[C@H](Cc2c[nH]c3ccccc23)NC(=O)[C@@H](NC(=O)[C@H](CC(N)=O)NC(=O)[C@@H](NC(C)=O)C(C)(C)S)[C@@H](C)O)C(C)(C)S)CCOCC1)C(=O)N[C@@H](CC(N)=O)C(=O)N[C@@H](CC(N)=O)C(N)=O | > 6 | 3 to 6 | – | –
13 | COc1ccc(C[C@H](NC(=O)[C@@H](NC(=O)[C@H](CCC(N)=O)NC(=O)[C@H](Cc2c[nH]c3ccccc23)NC(=O)[C@@H](NC(=O)[C@H](CC(N)=O)NC(=O)[C@@H](NC(C)=O)C(C)(C)S)[C@@H](C)O)C(C)(C)S)C(=O)N[C@@H](Cc2ccc3ccccc3c2)C(=O)NC2(C(=O)N[C@@H](CCCCNC(C)=O)C(=O)N[C@@H](CC(N)=O)C(=O)N[C@@H](CC(N)=O)C(N)=O)CCOCC2)cc1 | > 6 | > 6 | – | –
14 | CC(=O)NCCCC[C@H](NC(=O)C(C)(C)NC(=O)[C@H](Cc1ccc2ccccc2c1)NC(=O)[C@H](Cc1ccc(OCCN)cc1)NC(=O)[C@@H](NC(=O)[C@H](CCC(N)=O)NC(=O)[C@H](Cc1c[nH]c2ccccc12)NC(=O)[C@@H](NC(=O)[C@H](CC(N)=O)NC(=O)[C@@H](NC(=O)[C@@H](Cc1ccccc1)NC(C)=O)C(C)(C)S)[C@@H](C)O)C(C)(C)S)C(=O)N[C@@H](CC(N)=O)C(=O)N[C@@H](CC(N)=O)C(N)=O | > 6 | > 6 | – | –
